US6537972B1, “Compositions and methods for inhibiting human immunodeficiency virus infection by down-regulating human cellular genes” (Subsidiary No. 3., Inc., priority 1997, dated 2003)

Experiments:
[1] = tested on: latent HIV provirus in OM10.1 cells; experiment: Inhibition of TNF-α induction of latent HIV provirus in OM10.1 cells (CD4 / p24 by flow cytometry); format: cell-based, HIV-1
Method: OM10.1 cells were cultured in RPMI 1640 glucose-free media prior to and during incubation with NADH dehydrogenase inhibitors and TNF-α induction. The inhibitors were added to the cells followed by TNF-α induction 1-2 hours later. The expression of CD4 by the cells was assessed by anti-CD4 antibody staining and flow cytometry after 24 hour incubation at 37° C.

OM10.1 cells = format: cell-based; conditions: human, 24 h, 100 nM
HIV-1SF33 = experiment: Infection of freshly isolated human PBLs with HIV-1SF33 in the presence of mofarotene (CD3-gated flow cytometry); format: cell-based; conditions: for % CD4+ in T cell population / % p24+ in CD4+ T population: HIV +, HIV-1SF33 TCID50 1000
Method: (§1) Human peripheral blood leukocytes (PBLs) were isolated using Ficoll-Hypaque density gradient separation. Cells were washed twice and resuspended in RPMI+10% FBS+2% human AB serum+penicillin/streptomycin/glutamine+100 Units/ml of IL-2 at a concentration of 0.5×10^6 cells/ml. PBLs were then activated with phytohemagglutinin at 0.5 μg/ml and placed in a humidified incubator at 37° C./[…]. After two days of activation, 10^6 cells were infected with HIV-1SF33 at TCID50 of 1000, in the presence of various concentrations of mofarotene: 0 μM, 1 μM, 0.5 μM, 0.1 μM, and 0.05 μM. A separate set of uninfected samples under identical concentrations of mofarotene were also maintained as controls. The samples were analyzed by flow cytometry at day 4 and day 6 post infection. The cells were gated for CD3 expression (for T cells). Then the expression of CD4 and viral p24 and CD4 was examined by bivariate dot plot.

[2] = tested on: human peripheral blood leukocytes (CD3+ T cells); experiment: Uninfected human PBLs under mofarotene (control samples, CD3-gated flow cytometry); format: cell-based; conditions: for % CD4+ in T cell population / % p24+ in CD4+ T population: HIV −, human PBLs; for % CD4+ in T cell population: CD3+ gated
Method: as §1

[3] = mofarotene 0.05 μM, human PBLs, day 6
[4] = mofarotene 0.1 μM, human PBLs, day 6
[5] = mofarotene 0.5 μM, human PBLs, day 6
[6] = mofarotene 1.0 μM, human PBLs, day 6
[7] = mofarotene 1.0 μM, human PBLs, day 6, listed as mofarotene

C/C(=C\c1ccc(OCCN2CCOCC2)cc1)c1ccc2c(c1)C(C)(C)CCC2(C)C [Mofarotene]
cells that retained CD4 expression ([1]; 100 nM, TNF-α-induced OM10.1 cells): 80%
induction of latent HIV provirus in OM10.1 cells (retention of CD4 expression) ([1]; TNF-α-induced OM10.1 cells, 24 hour incubation, FIG. 25, 26): inhibited HIV-1 induction at even lower concentrations
intracellular p24 levels in treated cells ([1]; compared with untreated controls): suppressed intracellular p24 levels
cells that remained viable (OM10.1 cells): greater than 80%
depletion of CD4+ T cells by HIV infection (HIV-1SF33; 1 μM, day 6, human PBLs): inhibited the depletion of CD4^+ T cells
% CD4+ in T cell population (HIV-1SF33; [3]): 18%
% p24+ in CD4+ T population (HIV-1SF33; [3]): 20.5%
% CD4+ in T cell population (HIV-1SF33; [4]): 28%
% p24+ in CD4+ T population (HIV-1SF33; [4]): 11.4%
% CD4+ in T cell population (HIV-1SF33; [5]): 24%
% p24+ in CD4+ T population (HIV-1SF33; [5]): 12.5%
% CD4+ in T cell population (HIV-1SF33; [6]): 25%
% p24+ in CD4+ T population (HIV-1SF33; [6]): 10%
% CD4+ in T cell population (HIV-1SF33; [7]): ~25%
% p24+ in CD4+ T population (HIV-1SF33; [7]): 10%
difference between HIV-infected PBLs with or without mofarotene (HIV-1SF33; day 4 post-infection): little detectable difference
% CD4+ in T cell population ([2]; mofarotene 0.05 μM, day 6): 33%
% p24+ in CD4+ T population ([2]; mofarotene 0.05 μM, day 6): 0%
% CD4+ in T cell population ([2]; mofarotene 0.1 μM, day 6): 34%
% p24+ in CD4+ T population ([2]; mofarotene 0.1 μM, day 6): 0%
% CD4+ in T cell population ([2]; mofarotene 0.5 μM, day 6): 34%
% p24+ in CD4+ T population ([2]; mofarotene 0.5 μM, day 6): 0%
% CD4+ in T cell population ([2]; mofarotene 1.0 μM, day 6): 36%
% p24+ in CD4+ T population ([2]; mofarotene 1.0 μM, day 6): 0%
percentage of CD4+ T cells, compound alone ([2]; day 4, uninfected samples): did not significantly alter
expression level of CD3 on the cell surface ([2]; day 6): did not alter
increase of the percentage of CD4+ T cells in uninfected samples, compound alone ([2]; day 6, effect called minimal): up to 4%
